# Measured values published in patent US9718828B2 (MERCK SHARP & DOHME CORP., priority 2011, dated 2017).
# pIC50: −log10 of the molar value. Counter-ions that a name gives are not always drawn.
# Molecular target: hBTK (full-length BTK, 6HIS-tag cleaved) (Homo sapiens (Human), UniProt Q06187)
# Experiment: BTK enzymatic activity, LANCE TR-FRET assay (Assay Method C)
# Format: biochemical
# Settings: LANCE TR-FRET, 50 pM hBTK, 25 μM ATP; class 100-1000 is given as ≧100 nM-<1 μM; read-out: IC50 Btk activity values - Assay Method C
# Sequence of hBTK (full-length BTK, 6HIS-tag cleaved) (Q06187 whole entry): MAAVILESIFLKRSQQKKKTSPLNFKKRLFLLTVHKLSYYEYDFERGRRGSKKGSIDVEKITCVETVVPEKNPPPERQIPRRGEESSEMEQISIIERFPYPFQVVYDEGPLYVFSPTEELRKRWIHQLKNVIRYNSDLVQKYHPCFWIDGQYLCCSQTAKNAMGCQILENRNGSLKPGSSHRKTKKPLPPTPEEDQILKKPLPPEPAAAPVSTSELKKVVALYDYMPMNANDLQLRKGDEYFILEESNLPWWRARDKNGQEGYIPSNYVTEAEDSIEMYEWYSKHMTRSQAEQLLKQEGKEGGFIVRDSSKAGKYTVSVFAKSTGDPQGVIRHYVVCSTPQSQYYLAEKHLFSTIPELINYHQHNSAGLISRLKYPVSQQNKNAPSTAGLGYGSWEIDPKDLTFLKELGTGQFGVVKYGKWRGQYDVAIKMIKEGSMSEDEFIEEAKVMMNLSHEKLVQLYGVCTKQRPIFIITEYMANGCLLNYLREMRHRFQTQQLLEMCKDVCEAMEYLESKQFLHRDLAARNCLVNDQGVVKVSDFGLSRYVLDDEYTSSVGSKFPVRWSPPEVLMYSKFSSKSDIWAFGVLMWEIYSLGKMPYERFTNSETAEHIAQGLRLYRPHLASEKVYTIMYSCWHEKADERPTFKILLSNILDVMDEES
row,SMILES,pIC50
1,"Nc1ncc(Cl)n2c([C@H]3CN(C(=O)C4(O)CC4)CCO3)nc(-c3ccc(C(=O)Nc4cc(C(F)(F)F)ccn4)cc3)c12 [Example 525, 4-(8-amino-5-chloro-3-{(2R)-4-[(1-hydroxycyclopropyl)carbonyl]morpholin-2-yl}imidazo[1,5-a]pyrazin-1-yl)-N-[4-(trifluoromethyl)pyridin-2-yl]benzamide]",> 8.00
2,"COCCC(=O)N1CCO[C@@H](c2nc(-c3ccc(C(=O)Nc4cc(C(F)(F)F)ccn4)cc3)c3c(N)ncc(C)n23)C1 [Example 510, 4-{8-amino-3-[(2R)-4-(3-methoxypropanoyl)morpholin-2-yl]-5-methylimidazo[1,5-a]pyrazin-1-yl}-N-[4-(trifluoromethyl)pyridin-2-yl]benzamide]",> 8.00
3,"COc1ccnc(NC(=O)c2ccc(-c3nc([C@@H]4CCCN(C(C)=O)C4)n4c(C)cnc(N)c34)cc2)c1 [Example 460, 4-{3-[(3R)-1-acetylpiperidin-3-yl]-8-amino-5-methylimidazo[1,5-a]pyrazin-1-yl}-N-(4-methoxypyridin-2-yl)benzamide]",> 8.00
4,"CSCCC(=O)N1CCO[C@@H](c2nc(-c3ccc(C(=O)Nc4cc(C(F)(F)F)ccn4)cc3)c3c(N)nccn23)C1 [Example 502, 4-(8-amino-3-{(2R)-4-[3-(methylsulfanyl)propanoyl]morpholin-2-yl}imidazo[1,5-a]pyrazin-1-yl)-N-[4-(trifluoromethyl)pyridin-2-yl]benzamide]",> 8.00
5,"COc1ccnc(NC(=O)c2ccc(-c3nc([C@@H]4CCCN(C(=O)C5(C)COC5)C4)n4ccnc(N)c34)cc2)n1 [Example 361, 4-(8-amino-3-{(3R)-1-[(3-methyloxetan-3-yl)carbonyl]piperidin-3-yl}imidazo[1,5-a]pyrazin-1-yl)-N-(4-methoxypyrimidin-2-yl)benzamide]",6.00 to 7.00
6,"Cc1cnc(N)c2c(-c3ccc(C(=O)Nc4cc(C(F)(F)F)ccn4)cc3)nc([C@H]3CN(C(=O)[C@H](C)O)CCO3)n12 [Example 543, 4-(8-amino-3-{(2R)-4-[(2S)-2-hydroxypropanoyl]morpholin-2-yl}-5-methylimidazo[1,5-a]pyrazin-1-yl)-N-[4-(trifluoromethyl)pyridin-2-yl]benzamide, TFA salt]",> 8.00
7,"CCC(=O)N1CCC[C@@H](c2nc(-c3ccc(C(=O)Nc4cc(C(F)(F)F)ccn4)cc3F)c3c(N)nccn23)C1 [Example 487, 4-{8-amino-3-[(3R)-1-propanoylpiperidin-3-yl]imidazo[1,5-a]pyrazin-1-yl}-3-fluoro-N-[4-(trifluoromethyl)pyridin-2-yl]benzamide]",> 8.00
8,"COCc1cnc(N)c2c(-c3ccc(C(=O)Nc4cc(C(F)(F)F)ccn4)cc3F)nc([C@@H]3CCCN(C(=O)C4(C)COC4)C3)n12 [Example 451, 4-[8-amino-5-(methoxymethyl)-3-{(3R)-1-[(3-methyloxetan-3-yl)carbonyl]piperidin-3-yl}imidazo[1,5-a]pyrazin-1-yl]-3-fluoro-N-[4-(trifluoromethyl)pyridin-2-yl]benzamide]",> 8.00
9,"COCC(=O)N1CCC[C@@H](c2nc(-c3ccc(C(=O)Nc4cc(C(F)(F)F)ccn4)cc3F)c3c(N)nccn23)C1 [Example 575, 4-{8-amino-3-[(3R)-1-(methoxyacetyl)piperidin-3-yl]imidazo[1,5-a]pyrazin-1-yl}-3-fluoro-N-[4-(trifluoromethyl)pyridin-2-yl]benzamide, TFA salt]",> 8.00
10,"COCC(=O)N1CCO[C@@H](c2nc(-c3ccc(C(=O)Nc4cc(C(F)(F)F)ccn4)cc3)c3c(N)ncc(C)n23)C1 [Example 536, 4-{8-amino-3-[(2R)-4-(methoxyacetyl)morpholin-2-yl]-5-methylimidazo[1,5-a]pyrazin-1-yl}-N-[4-(trifluoromethyl)pyridin-2-yl]benzamide, TFA salt]",> 8.00
11,"COCc1cnc(N)c2c(-c3ccc(C(=O)Nc4cc(C(F)(F)F)ccn4)cc3)nc([C@@H]3CCCN(C(=O)C4(C)COC4)C3)n12 [Example 449, 4-[8-amino-5-(methoxymethyl)-3-{(3R)-1-[(3-methyloxetan-3-yl)carbonyl]piperidin-3-yl}imidazo[1,5-a]pyrazin-1-yl]-N-[4-(trifluoromethyl)pyridin-2-yl]benzamide]",> 8.00
12,"CC1(C(=O)N2CCC[C@@H](c3nc(-c4ccc(C(=O)Nc5cccnn5)cc4)c4c(N)nccn34)C2)COC1 [Example 357, 4-(8-amino-3-{(3R)-1-[(3-methyloxetan-3-yl)carbonyl]piperidin-3-yl}imidazo[1,5-a]pyrazin-1-yl)-N-pyridazin-3-ylbenzamide]",6.00 to 7.00
13,"Nc1nccn2c([C@H]3CN(CC4CC4)CCO3)nc(-c3ccc(C(=O)Nc4cc(C(F)(F)F)ccn4)cc3)c12 [Example 508, 4-{8-amino-3-[(2R)-4-(cyclopropylmethyl)morpholin-2-yl]imidazo[1,5-a]pyrazin-1-yl}-N-[4-(trifluoromethyl)pyridin-2-yl]benzamide]",> 8.00
14,"Cc1cnc(N)c2c(-c3ccc(C(=O)Nc4cc(C(F)F)ccn4)cc3)nc([C@@H]3CCCN(C(=O)C4(C)COC4)C3)n12 [Example 458, 4-(8-amino-5-methyl-3-{(3R)-1-[(3-methyloxetan-3-yl)carbonyl]piperidin-3-yl}imidazo[1,5-a]pyrazin-1-yl)-N-[4-(difluoromethyl)pyridin-2-yl]benzamide]",> 8.00
15,"COCc1cnc(N)c2c(-c3ccc(C(=O)Nc4cc(C(F)(F)F)ccn4)cc3)nc([C@@H]3CC[C@H](C)N(C(=O)C4(C)COC4)C3)n12 [Example 450, 4-[8-amino-5-(methoxymethyl)-3-{(3R,6S)-6-methyl-1-[(3-methyloxetan-3-yl)carbonyl]piperidin-3-yl}imidazo[1,5-a]pyrazin-1-yl]-N-[4-(trifluoromethyl)pyridin-2-yl]benzamide]",> 8.00
16,"Cn1cc2c(n1)CCC[C@H]2n1nc(-c2ccc(C(=O)Nc3cc(C(F)(F)F)ccn3)cc2)c2c(N)ncnc21 [Example 557, 4-{4-amino-1-[(4R)-2-methyl-4,5,6,7-tetrahydro-2H-indazol-4-yl]-1H-pyrazolo[3,4-d]pyrimidin-3-yl}-N-[4-(trifluoromethyl)pyridin-2-yl]benzamide, TFA salt]",6.00 to 7.00
17,"Cn1ncc2c1CCC[C@@H]2n1nc(-c2ccc(C(=O)Nc3cc(C(F)(F)F)ccn3)cc2)c2c(N)ncnc21 [Example 553, 4-{4-amino-1-[(4S)-1-methyl-4,5,6,7-tetrahydro-1H-indazol-4-yl]-1H-pyrazolo[3,4-d]pyrimidin-3-yl}-N-[4-(trifluoromethyl)pyridin-2-yl]benzamide, TFA salt]",> 8.00
18,"CN1C[C@@H](c2nc(-c3ccc(C(=O)Nc4cc(C(F)(F)F)ccn4)cc3F)c3c(N)nccn23)CC[C@@H]1C(F)(F)F [Example 411, 4-{8-amino-3-[(3S,6R)-1-methyl-6-(trifluoromethyl)piperidin-3-yl]imidazo[1,5-a]pyrazin-1-yl}-3-fluoro-N-[4-(trifluoromethyl)pyridin-2-yl]benzamide]",> 8.00
19,"C[C@H]1CO[C@@H](c2nc(-c3ccc(C(=O)Nc4cc(C(F)(F)F)ccn4)cc3)c3c(N)nccn23)CN1C(=O)C1(C)COC1 [Example 515, 4-(8-amino-3-{(2R,5S)-5-methyl-4-[(3-methyloxetan-3-yl)carbonyl]morpholin-2-yl}imidazo[1,5-a]pyrazin-1-yl)-N-[4-(trifluoromethyl)pyridin-2-yl]benzamide, TFA salt]",> 8.00

# Same assay, conditions: Table D; Assay Method C (LANCE TR-FRET), 50 pM hBTK, 25 μM ATP; read-out: IC50 BTK activity value
row,SMILES,pIC50
1,"COCc1cnc(N)c2c(-c3ccc(C(=O)Nc4cc(C(F)(F)F)ccn4)cc3)nc([C@@H]3CCCN(C(=O)C4(C)COC4)C3)n12 [Example 449, 4-[8-amino-5-(methoxymethyl)-3-{(3R)-1-[(3-methyloxetan-3-yl)carbonyl]piperidin-3-yl}imidazo[1,5-a]pyrazin-1-yl]-N-[4-(trifluoromethyl)pyridin-2-yl]benzamide]",9.18
